Measurements reported in ChEMBL document CHEMBL1201862, “PubChem BioAssay data set” (2004).
Several values for one entry are separate records, joined by “and”; a condition that tells them apart may be missing. Identical values can stand only once.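 1) Cells in 96-well plates. 2) Compound, 48 h, 5 concentrations. 3) Linear interpolation between surrounding doses. 4) Unreached endpoint = highest concentration. Here, GI50 denotes the concentration required for 50% inhibition of growth.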 Activity calls are given as the source filed them. Rule as the data show it: active = GI50 up to about 1.1 µM and inactive = higher.

How the values were obtained:
Assay in all cases: inhibition of tumour cell growth, NCI panel, 48 h
[1] = system: SF-295
[2] = system: CCRF-CEM
[3] = system: NCI-H23
[4] = system: NCI-H460
[5] = system: RXF 393
[6] = system: SF-268
[7] = system: LOX IMVI
[8] = system: ACHN
[9] = system: OVCAR-4
[10] = system: A498
[11] = system: SR
[12] = system: HCT-116
[13] = system: MCF7
[14] = system: HCC 2998
[15] = system: T47D
[16] = system: U-251
[17] = system: MDA-MB-435
[18] = system: OVCAR-3
[19] = system: CAKI-1
[20] = system: Malme-3M
[21] = system: NCI-H522
[22] = system: NCI/ADR-RES
[23] = system: Hs-578T
[24] = system: SN12C
[25] = system: RPMI-8226
[26] = system: NCI-H226
[27] = system: MDA-MB-231
[28] = system: 786-0
[29] = system: K562
[30] = system: HOP-62
[31] = system: HCT-15
[32] = system: SW-620
[33] = system: COLO 205
[34] = system: MDA-N
[35] = system: OVCAR-8
[36] = system: IGROV-1
[37] = system: SK-MEL-28
[38] = system: HT-29
[39] = system: MOLT-4
[40] = system: SNB-19
[41] = system: SK-MEL-5
[42] = system: A549
[43] = system: PC-3
[44] = system: SNB-75
[45] = system: KM12
[46] = system: TK-10
[47] = system: M14
[48] = system: UACC-62
[49] = system: SK-OV-3
[50] = system: OVCAR-5
[51] = system: UACC-257
[52] = system: UO-31
[53] = system: SK-MEL-2
[54] = system: DU-145
[55] = system: EKVX
[56] = system: HOP-92
[57] = system: SF-539

COc1ccc(COC(=O)NCC(=O)NC(C)C(=O)NC(Cc2ccccc2)C(=O)OCc2ccccc2)cc1 (stereo not drawn)
GI50 [1]: 21.1 µM (inactive) and 22.3 µM (inactive)
GI50 [2]: 21.5 µM (inactive) and 13.6 µM (inactive)
GI50 [3]: 37.9 µM (inactive)
GI50 [4]: 10.8 µM (inactive)
GI50 [5]: 16.1 µM (inactive)
GI50 [6]: 24.3 µM (inactive) and 35 µM (inactive)
GI50 [7]: 28.1 µM (inactive) and 19.4 µM (inactive)
GI50 [8]: 21.3 µM (inactive) and 19.8 µM (inactive)
GI50 [9]: 34 µM (inactive) and 22.3 µM (inactive)
GI50 [10]: 38.8 µM (inactive) and 22.5 µM (inactive)
GI50 [11]: 28.3 µM (inactive) and 25 µM (inactive)
GI50 [12]: 33.5 µM (inactive) and 42.5 µM (inactive)
GI50 [13]: 17 µM (inactive)
GI50 [14]: 20.9 µM (inactive) and 14.8 µM (inactive)
GI50 [15]: 19.8 µM (inactive) and 30.1 µM (inactive)
GI50 [16]: 22.2 µM (inactive) and 21.9 µM (inactive)
GI50 [17]: 27.6 µM (inactive) and 22.1 µM (inactive)
GI50 [18]: 22.1 µM (inactive) and 24.4 µM (inactive)
GI50 [19]: 20 µM (inactive) and 21.1 µM (inactive)
GI50 [20]: 19.2 µM (inactive) and 36.6 µM (inactive)
GI50 [21]: 12.2 µM (inactive) and 16.5 µM (inactive)
GI50 [22]: > 100 µM (inactive) and 67.1 µM (inactive)
GI50 [23]: 23.9 µM (inactive) and 25.5 µM (inactive)
GI50 [24]: 24.2 µM (inactive) and 31.5 µM (inactive)
GI50 [25]: 29.6 µM (inactive) and 26.7 µM (inactive)
GI50 [26]: 27.3 µM (inactive) and 34.9 µM (inactive)
GI50 [27]: 20 µM (inactive) and 25.6 µM (inactive)
GI50 [28]: 20 µM (inactive) and 29.2 µM (inactive)
GI50 [29]: 26.5 µM (inactive) and 38.7 µM (inactive)
GI50 [30]: 24.7 µM (inactive) and 22.3 µM (inactive)
GI50 [31]: > 100 µM and 61.2 µM
GI50 [32]: 33.3 µM (inactive) and 45.8 µM (inactive)
GI50 [33]: 24.4 µM (inactive) and 24.2 µM (inactive)
GI50 [34]: 25.9 µM (inactive) and 27.4 µM (inactive)
GI50 [35]: > 100 µM (inactive) and 74.5 µM (inactive)
GI50 [36]: 45.2 µM (inactive) and 29.8 µM (inactive)
GI50 [37]: 18.9 µM (inactive) and 19.4 µM (inactive)
GI50 [38]: 26.4 µM (inactive) and 18.4 µM (inactive)

Nc1ncn(C2OC(CO)C(O)C2O)c(=O)n1 (stereo not drawn)
GI50 [39]: 735 nM (active) and 1.22 µM (inactive)

O=C1/C(=C/c2cccs2)NC(=S)N1CN1CCCC(CO)C1 (stereo not drawn)
GI50 [1]: 91.4 µM (inactive)
GI50 [40]: > 100 µM (inactive)
GI50 [2]: > 100 µM (inactive)
GI50 [41]: > 100 µM (inactive)
GI50 [39]: > 100 µM (inactive)
GI50 [3]: > 100 µM (inactive)
GI50 [6]: > 100 µM (inactive)
GI50 [7]: > 100 µM (inactive)
GI50 [8]: > 100 µM (inactive)
GI50 [9]: > 100 µM (inactive)
GI50 [10]: 32.2 µM (inactive)
GI50 [11]: > 100 µM (inactive)
GI50 [42]: > 100 µM (inactive)
GI50 [43]: > 100 µM (inactive)
GI50 [12]: > 100 µM (inactive)
GI50 [13]: > 100 µM (inactive)
GI50 [44]: > 100 µM (inactive)
GI50 [16]: > 100 µM (inactive)
GI50 [17]: > 100 µM (inactive)
GI50 [45]: > 100 µM (inactive)
GI50 [18]: > 100 µM (inactive)
GI50 [46]: > 100 µM (inactive)
GI50 [47]: > 100 µM (inactive)
GI50 [20]: > 100 µM (inactive)
GI50 [22]: > 100 µM (inactive)
GI50 [23]: > 100 µM (inactive)
GI50 [24]: > 100 µM (inactive)
GI50 [25]: 99.1 µM (inactive)
GI50 [48]: > 100 µM (inactive)
GI50 [49]: > 100 µM (inactive)
GI50 [50]: > 100 µM (inactive)
GI50 [26]: > 100 µM (inactive)
GI50 [27]: > 100 µM (inactive)
GI50 [28]: > 100 µM (inactive)
GI50 [51]: > 100 µM (inactive)
GI50 [52]: > 100 µM (inactive)
GI50 [53]: > 100 µM (inactive)
GI50 [29]: > 100 µM (inactive)
GI50 [30]: > 100 µM (inactive)
GI50 [54]: > 100 µM (inactive)
GI50 [31]: > 100 µM
GI50 [32]: > 100 µM (inactive)
GI50 [33]: > 100 µM (inactive)
GI50 [55]: > 100 µM (inactive)
GI50 [34]: > 100 µM (inactive)
GI50 [35]: > 100 µM (inactive)
GI50 [36]: > 100 µM (inactive)
GI50 [56]: > 100 µM (inactive)
GI50 [37]: > 100 µM (inactive)
GI50 [38]: > 100 µM (inactive)

COc1cc2c(c3nc4ccccc4nc13)-c1ccc(SC)c(=O)cc1[C@@H](NC(C)=O)CC2
GI50 [1]: 0.216 µM (active)
GI50 [40]: 0.0475 µM (active)
GI50 [2]: 0.0601 µM (active)
GI50 [41]: 0.0347 µM (active)
GI50 [39]: 0.0438 µM (active)
GI50 [3]: 0.0247 µM (active)
GI50 [4]: 0.0893 µM (active)
GI50 [5]: > 100 µM (inactive)
GI50 [6]: 0.144 µM (active)
GI50 [7]: 0.0542 µM (active)
GI50 [8]: 1.15 µM (inactive)
GI50 [9]: 0.0562 µM (active)
GI50 [10]: 0.82 µM (active)
GI50 [11]: 0.0158 µM (active)
GI50 [42]: 0.377 µM (active)
GI50 [57]: 0.0248 µM (active)
GI50 [43]: 0.0479 µM (active)
GI50 [12]: 0.0372 µM (active)
GI50 [13]: 0.0485 µM (active)
GI50 [44]: 0.0313 µM (active)
GI50 [14]: 93.5 nM (active)
GI50 [16]: 0.0345 µM (active)
GI50 [17]: 0.0166 µM (active)
GI50 [45]: 0.0193 µM (active)
GI50 [18]: 0.0545 µM (active)
GI50 [19]: 1.83 µM (inactive)
GI50 [47]: 0.0617 µM (active)
GI50 [20]: 0.0106 µM (active)
GI50 [21]: 32.7 nM (active)
GI50 [22]: 6.9 µM (inactive)
GI50 [23]: 0.0182 µM (active)
GI50 [24]: 0.0968 µM (active)
GI50 [25]: 0.0387 µM (active)
GI50 [48]: 0.0373 µM (active)
GI50 [49]: 0.266 µM (active)
GI50 [26]: 0.135 µM (active)
GI50 [27]: 0.0966 µM (active)
GI50 [28]: 0.115 µM (active)
GI50 [51]: 0.069 µM (active)
GI50 [52]: 6.3 µM (inactive)
GI50 [29]: 0.0328 µM (active)
GI50 [30]: 0.405 µM (active)
GI50 [54]: 0.129 µM (active)
GI50 [31]: 1.23 µM
GI50 [32]: 0.0752 µM (active)
GI50 [33]: 0.0262 µM (active)
GI50 [55]: 0.0525 µM (active)
GI50 [34]: 0.0188 µM (active)
GI50 [35]: 0.0815 µM (active)
GI50 [36]: 0.0267 µM (active)
GI50 [56]: 0.149 µM (active)
GI50 [37]: > 56.4 µM (inactive)
GI50 [38]: 0.0364 µM (active)

Cc1nc(=O)n2c(c1C(=O)Nc1ccc(Cl)cc1)NCC2
GI50 [56]: 47.8 µM (inactive)
